Assay results from ChEMBL document CHEMBL1146253, “A distal methyl substituent attenuates mitochondrial protein synthesis inhibition in oxazolidinone antibacterials” (Bioorg Med Chem Lett, 2007).
≈ marks a conversion by molar mass, not a printed value.

What was measured:
Assay type in all cases: functional
Enterococcus faecalis = assay: Antibacterial activity against Enterococcus faecalis by broth microdilution method
Staphylococcus aureus = assay: Antibacterial activity against Staphylococcus aureus by broth microdilution method
Streptococcus pneumoniae = assay: Antibacterial activity against Streptococcus pneumoniae by broth microdilution method
Escherichia coli = assay: Intrinsic binding affinity to Escherichia coli ribosmes by TnT assay

SMILES | MIC90 (Enterococcus faecalis) [µg/mL] | MIC90 (Staphylococcus aureus) [µg/mL] | MIC90 (Streptococcus pneumoniae) [µg/mL] | IC50 (Escherichia coli) [nM]
CC(=O)NC[C@H]1CN(c2cc(F)c(N3CCC(C)(CC#N)CC3)c(F)c2)C(=O)O1 | 1 (≈ 2.46 µM) | 2 (≈ 4.92 µM) | 1 (≈ 2.46 µM) | 
COC1(C)CN(c2c(F)cc(N3C[C@H](CNC(C)=O)OC3=O)cc2F)C1 | 4 (≈ 10.8 µM) | 4 (≈ 10.8 µM) | 1 (≈ 2.71 µM) | 3700
CCC1(O)CCN(c2c(F)cc(N3C[C@H](CNC(C)=O)OC3=O)cc2F)CC1 | 2 (≈ 5.03 µM) | 4 (≈ 10.1 µM) | 1 (≈ 2.52 µM) | 2100
CC(=O)NC[C@H]1CN(c2ccc(N3CCOCC3)c(F)c2)C(=O)O1 [LINEZOLID] | 4 (≈ 11.9 µM) | 4 (≈ 11.9 µM) | 1 (≈ 2.96 µM) | 
CC(=O)NC[C@H]1CN(c2cc(F)c(N3CCC(CC#N)CC3)c(F)c2)C(=O)O1 | 1 (≈ 2.55 µM) | 2 (≈ 5.1 µM) | 1 (≈ 2.55 µM) | 1600
CCC1(O)CN(c2c(F)cc(N3C[C@H](CNC(C)=O)OC3=O)cc2F)C1 | 2 (≈ 5.41 µM) | 4 (≈ 10.8 µM) | 2 (≈ 5.41 µM) | 2700
CC(=O)NC[C@H]1CN(c2cc(F)c(N3CC(O)C3)c(F)c2)C(=O)O1 | 2 (≈ 5.86 µM) | 2 (≈ 5.86 µM) | 1 (≈ 2.93 µM) | 1900
CC(=O)NC[C@H]1CN(c2cc(F)c(N3CC(O)(C(F)(F)F)C3)c(F)c2)C(=O)O1 | 2 (≈ 4.89 µM) | 4 (≈ 9.77 µM) | 2 (≈ 4.89 µM) | 2400
COC1CN(c2c(F)cc(N3C[C@H](CNC(C)=O)OC3=O)cc2F)C1 | 2 (≈ 5.63 µM) | 2 (≈ 5.63 µM) | 1 (≈ 2.81 µM) | 2600
CC(=O)NC[C@H]1CN(c2cc(F)c(N3CC(C)(O)C3)c(F)c2)C(=O)O1 | 4 (≈ 11.3 µM) | 4 (≈ 11.3 µM) | 1 (≈ 2.81 µM) | 3400
CC(=O)NC[C@H]1CN(c2cc(F)c(N3CC(F)C3)c(F)c2)C(=O)O1 | 2 (≈ 5.83 µM) | 2 (≈ 5.83 µM) | 1 (≈ 2.91 µM) | 1400
CC(=O)NC[C@H]1CN(c2cc(F)c(N3CCC(O)CC3)c(F)c2)C(=O)O1 | 2 (≈ 5.41 µM) | 2 (≈ 5.41 µM) | 1 (≈ 2.71 µM) | 1700
CC(=O)NC[C@H]1CN(c2cc(F)c(N3CCC(C)(O)CC3)c(F)c2)C(=O)O1 | 2 (≈ 5.22 µM) | 4 (≈ 10.4 µM) | 1 (≈ 2.61 µM) | 2100
CC(=O)NC[C@H]1CN(c2cc(F)c(N3CC(C)(F)C3)c(F)c2)C(=O)O1 | 2 (≈ 5.6 µM) | 4 (≈ 11.2 µM) | 1 (≈ 2.8 µM) | 2300
